Results as given in US12121518B2, “PARP-1 and methods of use thereof” (The Board of Supervisors of Louisiana State University and …, priority 2017, dated 2024).
Entries after “also recorded” stand apart in the source; their conditions may differ. Like-named read-outs stand apart in the source and are kept apart here.

Assays:
[1] = tested on: bone marrow-derived MDSCs; conditions: co-culture without drug
allograft breast cancer = conditions: 50 mg/kg daily; cited from earlier work
[2] = tested on: APC^Min-induced tumor burden; assay: APC^Min/+ spontaneous intestinal tumorigenesis mouse model; format: in vivo; conditions: APC^Min/+ mice; for intestinal tumor burden: assessed at 16 weeks of age
Excerpt: If chronic inflammation is the sole mechanism by which PARP-1 participates in colon tumorigenesis, then the ability to severely block inflammation upon inhibition of the enzyme, pharmacologically or genetically, should almost entirely alleviate the tumor burden. According to the above data, however, this is not the case. […] In general, APC^Min/+ mice have a rather short lifespan and often die not only as a result of tumor burden but also due to development of severe anemia, substantial cachexia, and/or intestinal intussusceptions. To this end, C57BL/6 PARP-1^+/− and PARP-1^−/− mice were generated in the APC^Min/+ background (FIG. 39). PARP-1 heterozygosity provided remarkable protection against tumor development (FIG. 33A). […] Conversely, PARP-1 knockout promoted an increase in the number of small tumors.
(§1) Tumor models, assessment of tumor burden and adoptive transfer—For the azoxymethane/Dextran Sulfate Sodium (AOM/DSS)-induced tumorigenesis model, six to eight weeks old WT, PARP-1^+/− or PARP-1^−/− mice received a single dose (10 mg/kg) of AOM, i.p., followed by 4 cycles of 1.25% DSS provided in drinking water. Each cycle consisted of a week of DSS water separated by 2 weeks of regular water. […] At week 22 after the start of the experimental protocol, mice were sacrificed by CO2 asphyxiation. Colons, spleens, and blood were collected for analysis. Colons were opened longitudinally and washed with PBS to assess the tumor burdens using a dissecting microscope. For the APC^Min-mediated model, APC^Min/+, APC^Min/+PARP-1^+/−, or APC^Min/+PARP-1^−/− male mice were sacrificed at 16 weeks of age. […] Sacrificed mice were processed as described above except that the tumor burden was assessed along the whole intestinal track. Tumors were counted and divided in groups lower than 2 mm, 2-4 mm, and tumors bigger than 4 mm in diameter.
(§2) Tissue processing, immunohistochemistry, immunofluorescence and cytokines measurement—Some tissues were fixed in buffered formalin (10%), paraffin-embedded, then sectioned. Serial sections were subjected to H&E staining, immunohistochemistry (IHC) or immunofluorescence, as described (33), with antibodies to PCNA (Novusbio, Littleton, CO), COX-2 (Santa Cruz Biotechnology, Santa Cruz, CA), ICAM-1 (Santa Cruz Biotechnology), CD8 (Santa Cruz Biotechnology), or Gr1 (eBioscience, San Diego, USA) as previously described (34). Some of the sections were subjected to immunofluorescence with antibodies to CD8 or Gr1. Blood, collected by cardiac puncture, was run through a Microtainer Serum Separator tube (BD, Franklin Lake, NJ). The collected sera were immediately stored at −80° C. for future use and analysis. Cytokine levels were assessed for TNF-α (ELM-TNFα-1), IL-6 (ELM-IL-6-1), and MCP-1 (ELM-MCP1) by ELISA (all from RayBiotech, Norcross, GA) according to the manufacturer's instructions and recommendations.

MDSCs and T cells = assay: FACS of tumor-infiltrating and spleen immune cells in the MC-38 model; format: in vivo, mouse
Excerpt: Tumors from the different experimental groups were either processed to generate single-cell suspensions or fixed with formalin. Single cell suspensions were stained with a combination of antibodies to CD45, CD11b, Gr1, Ly6C, and Ly6G. CD11b^+ cell population was gated from the live CD45^+ population. (A) Representative FACS dot plot of the experimental groups. (B) Absolute numbers and percentages of CD11b^+Gr1^+ cell populations in tumors of the different groups. (C) Absolute numbers and percentages of CD11b^+Ly6C^+ and CD11b^+Ly6G^+ populations in tumors of the different groups. (D) Absolute numbers and percentages of CD45^+CD3^+ and CD3^+CD8^+ cell populations in tumors of the different groups. […] (F) Percentages of CD45^+CD3^+ and CD3^+CD8^+ cell populations in spleens of the different groups. […] T cell proliferation was assessed by FACS. p≤0.05; **, p≤0.01; ***, p≤0.001.
Flow cytometric characterization of tumor infiltrating immune cells using fluorescence-activated cell sorting (FACS) analysis—Following digestion, tumor homogenates were filtered through a […] cell strainer to obtain a single cell suspension. Cell suspensions were then subjected to red blood cell lysis using ACK buffer for 5 minutes before resuspending in complete media. Cells were treated with anti-CD16/CD32 (BD; 2.4G2) for Fc blocking prior to staining with fluorescently-labeled mouse antibodies specific for CD45 (30-F11), CD3e (500A2) (both from eBioscience, San Diego, CA), Ly6C (AL-21), Ly6G (1A8), Gr1 (RB6-8C5), CD11b (M1/70), CD8 (53-6.7), and PD-1 (PA5-J43) (all from BD Biosciences, San Jose, CA). Single cells were gated by first using forward- and side-scatter doublet discrimination. Immune cells were discriminated from this doublet-excluded population using CD45. Myeloid cells were identified using a CD11b^+gate and MDSC subtypes identified by Gr1 selection and then plotted Ly6G/Ly6C. CD3^+ T-cells were gated from CD45^+ cells. CD4^+ and C8^+ T-cells were identified from CD3^+ gate. The detailed gating strategy is described in FIG. 45.

[3] = tested on: AOM/DSS-induced colon tumorigenesis; assay: AOM/DSS chronic inflammation-driven colon cancer mouse model; format: in vivo; conditions: AOM/DSS-treated WT mice; for colon tumor burden: vs vehicle
Method: The drug was administered twice weekly for the duration of the protocol. […] As stated above, the AOM/DSS colon cancer model is driven primarily by chronic inflammation; thus, we next assessed mice sera for inflammatory factors TNF-α, IL-6, and MCP-1, which are highly relevant to human colon carcinogenesis.
as §1
as §2, with “Some of the sections were subjected to immunofluorescence with antibodies to CD8 or Gr1. Blood, collected by cardiac puncture, was run through a Microtainer Serum Separator tube (BD, Franklin Lake, NJ). The collected sera were immediately stored at −80° C. for future use and analysis.” left out

perforin = assay: Perforin immunoblot in CD3/CD28-stimulated spleen CD3+ T cells; format: cell-based; conditions: 3 days
Method: CD3^+ T cells were isolated from spleen then stimulated with antibodies to CD3 and CD28 for 3 days. Protein extracts were analyzed by immunoblotting with antibodies to perforin (a marker of T cell function) or GAPDH. Note that the 4 nM concentration increased, while the 1 mM decreased, perforin levels.

With `O=C(c1cc(Cc2n[nH]c(=O)c3ccccc23)ccc1F)N1CCN(C(=O)C2CC2)CC1` [olaparib] the “suppressive activity of MDSCs on T-cell proliferation” value (“suppressive activity of MDSCs” below) ([1]; 4 nM) was “significantly reduced”, the “suppressive activity of MDSCs” value ([1]; high concentration 5 μM) was “blocked the function of MDSCs completely” and the “suppressive activity of MDSCs” value ([1]; moderate concentration 0.1 μM) was “blocked the function of MDSCs completely”. The “effect on anti-PD1 immunotherapy” value (allograft breast cancer) was “enhances anti-PD1 immunotherapy”, the intestinal tumor burden ([2]; 5 mg/kg i.p. twice a week) was “good protection against the tumor burden; also recorded: good protection against tumor development” and the intestinal tumor burden ([2]; 5 mg/kg i.p. twice a week, listed as Olaparib) was “reduces the tumor burden”. For the same molecule, the intestinal tumor burden ([2]; 25 mg/kg i.p. twice a week) was “no protection against the burden; also recorded: no significant protection”, the systemic inflammation [2] was “effective at blocking systemic inflammation” and the “cachexia (body weight)” value ([2]; high dose (25 mg/kg)) was “did not”. For the same molecule, the “cachexia (body weight)” value ([2]; moderate dose (5 mg/kg)) was “protected against cachexia”, the “CD3+ T cells in tumors (mostly CD8+)” value (MDSCs and T cells; low dose 0.2 mg/kg) was “increased” and the “percentages and numbers of CD11b+/Gr1+ MDSCs in tumors” value (MDSCs and T cells; low dose 0.2 mg/kg) was “did not significantly affect”. The “numbers and percentages of M-MDSCs in tumors” value (MDSCs and T cells; moderate dose 5 mg/kg) was “significantly increased”, the “overall CD3+ T cells in spleens (with concomitant decrease in CD8+)” value (MDSCs and T cells; moderate dose 5 mg/kg) was “substantial decrease” and the colon tumor burden ([3]; 5 mg/kg i.p. twice weekly) was “significantly reduced the tumor burden”. For the same molecule, the colon tumor burden ([3]; 25 mg/kg i.p. twice weekly) was “significantly reduced the tumor burden”, the “colitis (colonic mucosa, H&E)” value ([3]; 5 or 25 mg/kg) was “notable protection” and the “perforin levels (marker of T cell function)” value (perforin; 4 nM) was “increased”. For the same molecule, the “perforin levels (marker of T cell function)” value (perforin) was “decreased”.
